Entries after “also recorded” stand apart in the source; their conditions may differ.
Legend:
tubulin [1] = assay: Immunoblotting analysis of polymerized/depolymerized tubulin; format: cell-based, human; details: Hela cells, 6 h
Protocol: After being treated with diluent (0.2% DMSO), tested compound, CA-4 or PTX for 6 h, Hela cells were lysed with microtubulestabilizing buffer, containing 100 mM PIPES, pH 6.8, 1 mM MgCl2, 2 mM EGTA, 0.5% NP-40, 2 M glycerol, 5 μM PTX and protease inhibitors cocktail (Roche), and the lysate was centrifuged at 15,000 rpm for 15 min. Supernatant containing depolymerized tubulin was carefully collected, whereas pellet (polymerized tubulin) was further dissolved in SDS-lysis buffer (Beyotime, China). Equal amounts of supernatant and dissolved pellet were subjected to immunoblotting analysis as described above using a tubulin antibody (Proteintech).

tubulin [2] = assay: Immunofluorescent analysis of tubulin morphology; format: cell-based, human; details: SKOV-3 cells, 24 h
Protocol: After treatment with diluent (0.2% DMSO) or tested compounds at indicated concentrations for 24 h, SKOV-3 cells were fixed with methanol, permeabilized with 0.1% Triton X-100 in PBS and blocked by goat serum. Then the cells were incubated with a-tubulin antibody at 4° C. overnight, followed by incubation with Alexa 488 labeled secondary antibody (Jackson ImmunoResearch) at RT for 1 h. After being stained with DAPI, cells were examined and photographed with a Leica SP5 co-focal fluorescence microscope.

MDA-MB-231 cells = assay: Colony formation assay; format: cell-based, human; details: 48 h treatment, 7-10 days growth
Protocol: 1000 MDA-MB-231 cells per well were seeded into 6-well plate at a single cell density and were cultured at 37° C. for 48 h. After being treated with indicated concentrations of 69, 70 and 97, CA-4 as positive control, or diluent (0.2% DMSO) as negative control for 48 h, the agents containing medium was replaced by fresh medium to allow cell growth for additional 7-10 days. Then the cells were fixed with methanol and stained with gentian violet for 30 min. The number of colonies which consisted of more than 50 cells were counted. The results were indicated as mean values from three independent determinations.

[3] = test system: p-histone H3, cyclin B1 and BuBR1; assay: Cell cycle associated proteins assay; format: cell-based, human; details: HeLa cells, 24 h, Western blot and qPCR
Protocol: A. HeLa cells were treated with 69, 70, 97 or DMSO for 24 h. After being harvested, the cells were lysed, and the concentrations of total protein were determined by BCA protein assay kit (Beyotime, China). […] The membrane was blocked with 5% BSA in TBST for 1.5 h, then incubated overnight with specific primary antibodies (Proteintech) at 4° C. After being washed three times by TBST, the membrane was incubated with specific secondary antibodies (Abnova, Taipei, China) at room temperature for 2 h. Finally, chemiluminescent reagents (Millipore) were employed to detect the protein bands.
(§1) B. Quantitative PCR assay: HeLa cells were treated with 69, 70 or 97. The expression level of mRNA of target proteins was tested with qPCR kit (Takara).

cellular apoptosis = assay: Cell apoptosis analysis (Annexin V/PI); format: cell-based; details: 48 h, Annexin-V/PI flow cytometry
Protocol: Cell apoptosis was detected using FITC Annexin V Apoptosis Detection Kit (BD Biosciences) according to manufacturer's instructions. Briefly, cells were incubated with indicated concentrations of 69, 70 and 97, CA-4 as positive control or diluent (0.2% DMSO) as negative control for 48 h. Then the cells were harvested, washed twice with PBS, and re-suspended in binding buffer. After being stained with Annexin-V and PI for 15 min in the dark place, cells were subjected to flow cytometry (Cytomics FC 500 MPL, Beckman Coulter) analysis. The results were indicated as mean values from three independent determinations.

[4] = test system: Bax, p53 and cleaved-PARP; assay: Expression level of apoptosis associated proteins; format: cell-based, human; details: HeLa cells, Western blot and qPCR
Protocol: A. Western blotting: After being treated with candidate compound, cells were harvested and lysed. Then, the lysate was isolated by ultracentrifuge and quantified by BCA assay according to the protocol. After being denatured, equivalent protein of each sample was separated by SDS-PAGE gel and wet-transferred onto […] nitrocellulose membrane. After being blocked by PBS containing 5% skim milk, the membrane was incubated with primary antibody at 4° C. overnight and secondary antibody at room temperature for 2 h and then visualized by enhanced chemiluminescence kit (Thermo Fisher, USA), sequentially.
as §1

KM mice = assay: Acute toxicity assay; format: in vivo
Protocol: KM mice were housed individually in a specific pathogen free facility. Groups of mice (n=10 per group, half male and half female) were injected intraperitoneally once with various dosages of 69 (95, 70, 50, 35, 25 mg/kg), 70 (500, 425, 350, 275, 200 mg/kg), 97 (275, 200, 150, 125 and 100 mg/kg) or vehicle (8.3% cremohorp EL and 8.3% alcohol in PBS) as negative control, respectively. 69, 70 and 97 was dissolved in cremeohore EL and alcohol mixture (1:1, v/v) and further diluted with PBS (1:5, v/v). The death of mice were monitored daily and recorded up to 14 days after injection.

A2780 cells = assay: Xenografts tumor growth assay in nude mice; format: in vivo, Balb/c nude mice; details: A2780 xenograft; for tumor growth in vivo: i.p. once every 2 days, 69 7.5 mg/kg, 70 12.5 mg/kg, 97 4 or 8 mg/kg; for H&E staining of liver, kidney and spleen / H&E staining of tumor sections (necrosis): treated groups
Protocol: 6 weeks old female Balb/c nude mice were purchased from Shanghai Slac Laboratory Animal Co. Ltd. (Shanghai, China). 2*10^6 A2780 cells suspended in 0.2 mL PBS per mouse was injected subcutaneously into the nude mice. […] Administration of agents or vehicle, or agents and measurement of tumor volumes with a digital caliper was done once every 2 days. Tumor volumes were calculated as volume=shortest diameter (W)^2*longest diameter (L)*0.52. When the average tumor volumes of vehicle treated group reached 2000 mm^3 in diameter, the mice were sacrificed and the tumors were isolated and weighed. Visceral organs of the mice as well as solid tumors were further analyzed by H&E staining.

## COc1ccc([C@H]2[C@H](C)C(=O)N2c2cc(OC)c(OC)c(OC)c2)cc1O [Compound 97, (3S,4R)-4-(3-hydroxy-4-methoxyphenyl)-3-methyl-1-(3,4,5-trimethoxyphenyl)azetidin-2-one]
Tubulin [1]
  polymerized tubulin (immunoblotting): significantly inhibit tubulin aggregation; also recorded: dramatically reduction of polymerized tubulin
Tubulin [2]
  tubulin assembly (immunofluorescence): significantly inhibit tubulin aggregation; also recorded: strongly inhibit tubulin assembly in cancer cells
MDA-MB-231 cells
  colony formation: significantly inhibit the formation of colonies of cancer cells
[3]
  expression of p-histone H3, cyclin B1 and BuBR1: significantly promote the expression of phosphorylated histone H3, cyclin B1, and mitotic checkpoint protein BuBR1
Cellular apoptosis
  cellular apoptosis: significantly promote apoptosis; also recorded: significantly induce cellular apoptosis
[4]
  expression of Bax, p53 and cleaved-PARP: significantly promote the expression of the proapoptotic protein Bax, the tumor suppressor gene p53, and the cleaved DNA repair enzyme; also recorded: significantly induce the expression of Bax, p53 and cleaved-PARP
KM mice; 100 mg/kg i.p. once
  No. of dead mice 5-14 days: 0
  No. of dead mice 1 day: 0
  No. of dead mice 2 days: 0
  No. of dead mice 3 days: 1
  No. of dead mice 4 days: 0
  No. of dead mice Total death: 1
  Survival (%) on day 14: 90%
KM mice; 125 mg/kg i.p. once
  No. of dead mice 5-14 days: 0
  No. of dead mice 1 day: 0
  No. of dead mice 2 days: 2
  No. of dead mice 3 days: 1
  No. of dead mice 4 days: 0
  No. of dead mice Total death: 3
  Survival (%) on day 14: 70%
KM mice; 150 mg/kg i.p. once
  No. of dead mice 5-14 days: 0
  No. of dead mice 1 day: 2
  No. of dead mice 2 days: 4
  No. of dead mice 3 days: 0
  No. of dead mice 4 days: 0
  No. of dead mice Total death: 6
  Survival (%) on day 14: 40%
KM mice; 200 mg/kg i.p. once
  No. of dead mice 5-14 days: 0
  No. of dead mice 1 day: 1
  No. of dead mice 2 days: 4
  No. of dead mice 3 days: 2
  No. of dead mice 4 days: 0
  No. of dead mice Total death: 7
  Survival (%) on day 14: 30%
KM mice; 275 mg/kg i.p. once
  No. of dead mice 5-14 days: 0
  No. of dead mice 1 day: 2
  No. of dead mice 2 days: 4
  No. of dead mice 3 days: 2
  No. of dead mice 4 days: 1
  No. of dead mice Total death: 9
  Survival (%) on day 14: 10%
A2780 cells
  tumor growth in vivo: significantly inhibit tumor growth in vivo; also recorded: anti-tumor activities in vivo
  H&E staining of liver, kidney and spleen: no abnormal areas are observed in tissue staining of liver, kidney and spleen; also recorded: no detectable abnormalities were observed in liver, kidney and spleen
  H&E staining of tumor sections (necrosis): cause tumor tissue to produce necrotic areas; also recorded: extensive areas of necrosis or cell death

## COc1ccc([C@H]2[C@@H](C)C(=O)N2c2cc(OC)c(OC)c(OC)c2)cc1O [Compound 70, (3R,4R)-4-(3-hydroxy-4-methoxyphenyl)-3-methyl-1-(3,4,5-trimethoxyphenyl)azetidin-2-one]
Tubulin [1]
  polymerized tubulin (immunoblotting): significantly inhibit tubulin aggregation; also recorded: dramatically reduction of polymerized tubulin
Tubulin [2]
  tubulin assembly (immunofluorescence): significantly inhibit tubulin aggregation; also recorded: strongly inhibit tubulin assembly in cancer cells
MDA-MB-231 cells
  colony formation: significantly inhibit the formation of colonies of cancer cells
[3]
  expression of p-histone H3, cyclin B1 and BuBR1: significantly promote the expression of phosphorylated histone H3, cyclin B1, and mitotic checkpoint protein BuBR1
Cellular apoptosis
  cellular apoptosis: significantly promote apoptosis; also recorded: significantly induce cellular apoptosis
[4]
  expression of Bax, p53 and cleaved-PARP: significantly promote the expression of the proapoptotic protein Bax, the tumor suppressor gene p53, and the cleaved DNA repair enzyme; also recorded: significantly induce the expression of Bax, p53 and cleaved-PARP
KM mice; 200 mg/kg i.p. once
  No. of dead mice 5-14 days: 0
  No. of dead mice 1 day: 0
  No. of dead mice 2 days: 0
  No. of dead mice 3 days: 0
  No. of dead mice 4 days: 0
  No. of dead mice Total death: 0
  Survival (%) on day 14: 100%
KM mice; 275 mg/kg i.p. once
  No. of dead mice 5-14 days: 1
  No. of dead mice 1 day: 0
  No. of dead mice 2 days: 0
  No. of dead mice 3 days: 0
  No. of dead mice 4 days: 1
  No. of dead mice Total death: 2
  Survival (%) on day 14: 80%
KM mice; 350 mg/kg i.p. once
  No. of dead mice 5-14 days: 0
  No. of dead mice 1 day: 0
  No. of dead mice 2 days: 0
  No. of dead mice 3 days: 1
  No. of dead mice 4 days: 0
  No. of dead mice Total death: 1
  Survival (%) on day 14: 90%
KM mice; 425 mg/kg i.p. once
  No. of dead mice 5-14 days: 0
  No. of dead mice 1 day: 0
  No. of dead mice 2 days: 0
  No. of dead mice 3 days: 3
  No. of dead mice 4 days: 0
  No. of dead mice Total death: 3
  Survival (%) on day 14: 70%
KM mice; 500 mg/kg i.p. once
  No. of dead mice 5-14 days: 0
  No. of dead mice 1 day: 0
  No. of dead mice 2 days: 0
  No. of dead mice 3 days: 4
  No. of dead mice 4 days: 0
  No. of dead mice Total death: 4
  Survival (%) on day 14: 60%
A2780 cells
  tumor growth in vivo: significantly inhibit tumor growth in vivo; also recorded: anti-tumor activities in vivo
  H&E staining of liver, kidney and spleen: no abnormal areas are observed in tissue staining of liver, kidney and spleen; also recorded: no detectable abnormalities were observed in liver, kidney and spleen
  H&E staining of tumor sections (necrosis): cause tumor tissue to produce necrotic areas; also recorded: extensive areas of necrosis or cell death

— US20220251039A1, “Diaryl-B-Lactam Compound and Preparation Method and Pharmaceutical Use Thereof” (Fudan University, priority 2016, published 2022)
